In patent US7132540B1, “Hindered spiro-ketal nitroxides” (Nova Molecular Technologies Inc., priority 2001, dated 2006):

How the values were obtained:
[1] = Polymerization of vinyl acetate at 70° C. with benzoyl peroxide in the presence of nitroxide inhibitors; settings: vinyl acetate 10 ml, benzoyl peroxide 0.35 g, inhibitor 0.1 g (0.1 ml for 6), water bath 70° C.
Method: (§1) Testing was done to determine the effectiveness of various nitroxides in inhibiting the polymerization of various vinyl monomers.
(§2) A sample of vinyl monomer (10 ml) was placed in an open 25 ml test tube. To each tube benzoyl peroxide (0.35 g) and 0.1 g of nitroxide inhibitor was added, then the tubes were placed in a water bath maintained by a thermostat at 70° C. The selected vinyl monomers polymerize under these conditions without nitroxide inhibitors within a few minutes.
(§3) Vinyl monomers: acrylonitrile, vinyl acetate and methyl acrylate.
Polymerization of Vinyl Acetate at 70° C. in the presence of Nitroxide Inhibitors.

[2] = Polymerization of acrylonitrile at 70° C. with benzoyl peroxide in the presence of nitroxide inhibitors; settings: acrylonitrile 10 ml, benzoyl peroxide 0.35 g, inhibitor 0.1 g (0.1 ml for 6), water bath 70° C.
Method: as §1, §2, §3
Polymerization of Acrylonitrile at 70° C. in the presence of Nitroxide Inhibitors.

[3] = Polymerization of methyl acrylate at 70° C. with benzoyl peroxide in the presence of nitroxide inhibitors; settings: methyl acrylate 10 ml, benzoyl peroxide 0.35 g, inhibitor 0.1 g (0.1 ml for 6), water bath 70° C.
Method: as §1, §2, §3
Polymerization of Methyl Acrylate at 70° C. in the presence of Nitroxide Inhibitors.

CC1(C)CC2(CC(C)(C)N1[O])OCCCO2 [Example 1, 1,5-dioxa-9-aza-8,8,10,10-tetramethylspiro[5,5]undec-9-yloxy]
Inhibition Time [1]: 205 min | Inhibition Time [2]: 40 min | Inhibition Time [3]: 165 min

CC1(C)CC2(CC(C)(C)N1[O])OCCCO2 [Example 2, 1,5-dioxa-9-aza-8,8,10,10 tetramethylspiro[5,5]undec-9-yloxy]
Inhibition Time [1]: 145 min | Inhibition Time [2]: 60 min | Inhibition Time [3]: 166 min

COC1CC(C)(C)N(O)C(C)(C)C1 [Inhibitor 3]
Inhibition Time [1]: >300 min | Inhibition Time [2]: 305 min | Inhibition Time [3]: >300 min

CC1(C)CCCC(C)(C)N1O [Inhibitor 5]
Inhibition Time [1]: 385 min | Inhibition Time [2]: 60 min | Inhibition Time [3]: 180 min
